In brackets after ≈: the same amount, converted by molar mass.
Legend:
[1] = test system: Bordetella bronchiseptica ATCC 4617; experiment: Broth microdilution antimicrobial activity; type: cell-based; conditions: for MBC / MIC: ATCC4617
Description: (§1) Reference strains of microorganisms that came from American Type Culture Collection (ATCC) (Manassas, VA, USA) were used for this study. The representative Gram-positive bacteria were as follows: Staphylococcus aureus ATCC 25923, Staphylococcus aureus ATCC 29213, Staphylococcus aureus ATCC 43300, Staphylococcus epidermidis ATCC 12228, Enterococcus faecalis ATCC 29212, Micrococcus luteus ATCC 10240, Bacillus subtilis ATCC 6633 and Bacillus cereus ATCC 10876. While, those of Gram-negative bacteria were as follows: Bordetella bronchiseptica ATCC 4617, Escherichia coli ATCC 25922, Klebsiella pneumoniae ATCC 13883, Proteus mirabilis ATCC 12453, Salmonella Typhimurium ATCC 14028 and Pseudomonas aeruginosa ATCC 9027. Moreover, the following fungi belonging to yeasts were used: Candida albicans ATCC 10231, Candida albicans ATCC 2091, Candida parapsilosis ATCC 22019, Candida glabrata ATCC 90030 and Candida krusei ATCC 14243.
(§2) The new compounds WZ1–WZ4 were assayed for both antibacterial and antifungal activity using the broth microdilution method in accordance with the European Committee on Antimicrobial Susceptibility Testing (EUCAST) and Clinical and Laboratory Standards Institute (CLSI) guidelines. The microorganisms were grown at 35 °C for 18–24 h on appropriate media (nutrient agar and Sabouraud for bacteria and fungi, respectively) (BioMaxima S.A., Lublin, Poland). Next, microbial suspensions with an optical density of 0.5 McFarland standard scale (in sterile 0.85% NaCl) were prepared. In turn, the tested compounds were initially diluted at 50 mg/mL in dimethyl sulfoxide (DMSO) and the broth microdilution method was used to assess their minimum inhibitory concentrations (MICs). For these studies, selective broth Mueller-Hinton (MH) (BioMaxima S.A., Lublin, Poland) and RPMI (Roswell Park Memorial Institute) 1640 with MOPS (3-(N-Morpholino)propanesulfonic acid) (Sigma-Aldrich Chemicals, St. Louis, MO, USA) were used for bacteria and fungi, respectively. The antimicrobial effect of compounds WZ1–WZ4 was determined in the concentration range from 2000 to 0.98 µg/mL.
(§3) Then, the microbial suspensions were introduced into each well of the microplate and incubated for 18–24 h at 35 °C. […] The reference drugs ciprofloxacin or vancomycin (against bacteria) and nystatin (against fungi) (Sigma-Aldrich Chemicals, St. Louis, MO, USA) were also used. Next, the values of the minimum bactericidal concentration (MBC) and minimum fungicidal concentration (MFC) of WZ1–WZ4 were assessed. For this purpose, the cultures from each MIC determination well were transferred to a suitable solid medium and incubated under appropriate conditions. The lowest concentrations of compounds without microbial growth were read as MBC or MFC. The studies were performed in triplicate and representative data were gathered.
(§4) In turn, the MBC/MIC or MFC/MIC ratios were used to assess bactericidal/fungicidal (MBC/MIC or MFC/MIC ≤ 4) and bacteriostatic/fungistatic (MBC/MIC or MFC/MIC > 4) effect of these compounds [93].

[2] = test system: Candida albicans ATCC 10231; experiment: Broth microdilution antimicrobial activity; type: cell-based; conditions: for MFC: ATCC10231, read-out: MFC; for MIC: ATCC10231, read-out: MIC
Description: as §1, §2, §3, §4

[3] = test system: Candida albicans ATCC 2091; experiment: Broth microdilution antimicrobial activity; type: cell-based; conditions: for MFC: ATCC2091, read-out: MFC; for MIC: ATCC2091, read-out: MIC
Description: as §1, §2, §3, §4

[4] = test system: Candida glabrata ATCC 90030; experiment: Broth microdilution antimicrobial activity; type: cell-based; conditions: for MFC / MIC: Nakaseomyces glabratus; for MFC: ATCC90030, read-out: MFC; for MIC: ATCC90030, read-out: MIC
Description: as §1, §2, §3, §4

[5] = test system: Candida parapsilosis ATCC 22019; experiment: Broth microdilution antimicrobial activity; type: cell-based; conditions: for MFC / MIC: Lodderomyces parapsilosis; for MFC: ATCC22019, read-out: MFC; for MIC: ATCC22019, read-out: MIC
Description: as §1, §2, §3, §4

[6] = test system: Enterococcus faecalis ATCC 29212; experiment: Broth microdilution antimicrobial activity; type: cell-based; conditions: for MBC / MIC: ATCC29212; for MBC / MIC / MBC/MIC: Enterococcus faecalis ATCC 29212; for MBC: read-out: MBC; for MIC: read-out: MIC
Description: as §1, §2, §3, §4

[7] = test system: Escherichia coli ATCC 25922; experiment: Broth microdilution antimicrobial activity; type: cell-based; conditions: for MBC / MIC: ATCC25922
Description: as §1, §2, §3, §4

[8] = test system: Klebsiella pneumoniae ATCC 13883; experiment: Broth microdilution antimicrobial activity; type: cell-based; conditions: for MBC / MIC: ATCC13883
Description: as §1, §2, §3, §4

[9] = test system: Proteus mirabilis ATCC 12453; experiment: Broth microdilution antimicrobial activity; type: cell-based; conditions: for MBC / MIC: ATCC12453
Description: as §1, §2, §3, §4

[10] = test system: Staphylococcus aureus ATCC 25923; experiment: Broth microdilution antimicrobial activity; type: cell-based; conditions: for MBC / MIC: ATCC25923
Description: as §1, §2, §3, §4

[11] = test system: Staphylococcus aureus ATCC 43300; experiment: Broth microdilution antimicrobial activity; type: cell-based; conditions: for MBC / MIC: ATCC43300; for MBC / MIC / MBC/MIC: Staphylococcus aureus ATCC 43300
Description: as §1, §2, §3, §4

in vitro = type: cell-based, sheep; conditions: sheep
Experimental: The toxicity of WZ1–WZ4 compounds towards red blood cells was tested using the erythrocyte lysis assay (ELA). Erythrocytes from fresh sheep blood (BioMaxima S.A., Poland) were centrifuged and washed with 0.85% NaCl. Next, 100 μL of a 2% suspension of red blood cells in physiological saline was added to the wells of microtiter plate. The double dilutions of compounds WZ1–WZ4 were prepared in the range of 2000–15.62 μg/mL. Appropriate controls were used to assess the hemolytic potential of tested compounds, i.e., 100% lysis of erythrocytes using 4% Triton X-100 (Pol-Aura, Różnowo, Poland) and 0% lysis in saline solution. Next, all sample plates were incubated (1 h at 37 °C), centrifuged for 10 min to separate unlysed red blood cells, and the supernatant was placed in a new plate. The ELA is a biological test by which the lytic response can be measured spectrophotometrically (at a wavelength of 450 nm) by the amount of hemoglobin released. The hemolysis percentage was calculated according to the following equation:(1) % Hemolysis = A450 of test compound treated sample − A450 of buffer treated sample/A450 of 4% Triton X100 treated samples − A450 of buffer treated sample × 100

Candida spp. = experiment: Broth microdilution, summary over reference Candida spp.; type: cell-based
Description: as §1, §2, §3, §4

`CNC(=S)NNS(=O)(=O)c1ccccc1` [WZ4, 2-(Benzenesulfonyl)-N-Methylhydrazine-1-Carbothioamide] gave an MBC/MIC [1] of over 1, an MBC [1] of over 2000 µg/mL and an MIC [1] of over 2000 µg/mL. For the same compound, the MFC/MIC [2] was 2, the MFC [2] was 1000 µg/mL (≈ 4.08 mM) and the MIC [2] was 500 µg/mL (≈ 2.04 mM). For the same compound, the MFC/MIC [3] was 4, the MFC [3] was 1000 µg/mL (≈ 4.08 mM) and the MIC [3] was 250 µg/mL (≈ 1.02 mM). It also gave an MFC/MIC [4] of 4, an MFC [4] of 500 µg/mL (≈ 2.04 mM) and an MIC [4] of 125 µg/mL (≈ 0.51 mM). The MFC/MIC [5] was 8, the MFC [5] was 1000 µg/mL (≈ 4.08 mM) and the MIC [5] was 125 µg/mL (≈ 0.51 mM). The MBC [6] was over 2000 µg/mL, the MIC [6] was 1000 µg/mL (≈ 4.08 mM) and the MBC/MIC [6] was over 2. It also gave an MBC/MIC [7] of over 1, an MBC [7] of over 2000 µg/mL and an MIC [7] of over 2000 µg/mL. For the same compound, the MBC/MIC [8] was over 1, the MBC [8] was over 2000 µg/mL and the MIC [8] was over 2000 µg/mL. It also gave an MBC/MIC [9] of over 1, an MBC [9] of over 2000 µg/mL and an MIC [9] of over 2000 µg/mL. It also gave an MBC/MIC [10] of over 4, an MBC [10] of over 2000 µg/mL and an MIC [10] of 500 µg/mL (≈ 2.04 mM). The MBC [11] was 2000 µg/mL (≈ 8.15 mM), the MIC [11] was 500 µg/mL (≈ 2.04 mM) and the MBC/MIC [11] was 4. It also gave a hemolysis at 1 h, 15.62 μg/mL (in vitro) of 0%, a hemolysis at 1 h, 31.25 μg/mL (in vitro) of 0% and a hemolysis at 1 h, 62.5 μg/mL (in vitro) of 0%. It also gave a hemolysis at 1 h, 125 μg/mL (in vitro) of 3.16%, a hemolysis at 1 h, 250 μg/mL (in vitro) of 15.8% and a hemolysis at 1 h, 500 μg/mL (in vitro) of 45.3%. For the same compound, the hemolysis at 1 h, 1000 μg/mL (in vitro) was 88.4%, the hemolysis at 1 h, 2000 μg/mL (in vitro) was 100% and the MIC (Candida spp.; C. albicans and C. krusei) was 250 to 500 µg/mL (≈ 1.02 to 2.04 mM). For the same compound, the MFC (Candida spp.; Candida, yeasts) was 500 to 2000 µg/mL (≈ 2.04 to 8.15 mM), the MIC (Candida spp.; reference Candida spp.) was 125 to 2000 µg/mL (≈ 0.51 to 8.15 mM) and the MFC/MIC (Candida spp.; reference yeasts, except WZ4 towards C. parapsilosis) was 1–4.
With `CCCCNC(=S)NNS(=O)(=O)c1ccccc1` [WZ2, 2-(Benzenesulfonyl)-N-Butylhydrazine-1-Carbothioamide] the MBC/MIC [1] was over 1, the MBC [1] was over 2000 µg/mL and the MIC [1] was over 2000 µg/mL. It also gave an MFC/MIC [2] of over 1, an MFC [2] of over 2000 µg/mL and an MIC [2] of 2000 µg/mL (≈ 6.96 mM). For the same compound, the MFC/MIC [3] was over 1, the MFC [3] was over 2000 µg/mL and the MIC [3] was 2000 µg/mL (≈ 6.96 mM). The MFC/MIC [4] was over 1, the MFC [4] was over 2000 µg/mL and the MIC [4] was over 2000 µg/mL. It also gave an MFC/MIC [5] of over 1, an MFC [5] of over 2000 µg/mL and an MIC [5] of 2000 µg/mL (≈ 6.96 mM). The MBC [6] was over 2000 µg/mL, the MIC [6] was over 2000 µg/mL and the bioactivity class ([6]; E. faecalis) was “no bioactivity (no bioactivity (MIC > 1000 µg/mL))”. It also gave an MBC/MIC [6] of over 1, an MBC/MIC [7] of over 1 and an MBC [7] of over 2000 µg/mL. For the same compound, the MIC [7] was over 2000 µg/mL, the MBC/MIC [8] was over 1 and the MBC [8] was over 2000 µg/mL. The MIC [8] was over 2000 µg/mL, the MBC/MIC [9] was over 1 and the MBC [9] was over 2000 µg/mL. For the same compound, the MIC [9] was over 2000 µg/mL, the MBC/MIC [10] was over 2 and the MBC [10] was over 2000 µg/mL. The MIC [10] was 1000 µg/mL (≈ 3.48 mM), the MBC [11] was over 2000 µg/mL and the MIC [11] was 2000 µg/mL (≈ 6.96 mM). For the same compound, the bioactivity class ([11]; S. aureus ATCC 43300) was “no bioactivity (no bioactivity (MIC > 1000 µg/mL))”, the MBC/MIC [11] was over 1 and the hemolysis at 1 h, 15.62 μg/mL (in vitro) was 0%. It also gave a hemolysis at 1 h, 31.25 μg/mL (in vitro) of 0%, a hemolysis at 1 h, 62.5 μg/mL (in vitro) of 0% and a hemolysis at 1 h, 125 μg/mL (in vitro) of 3.15%. It also gave a hemolysis at 1 h, 250 μg/mL (in vitro) of 8.95%, a hemolysis at 1 h, 500 μg/mL (in vitro) of 19.5% and a hemolysis at 1 h, 1000 μg/mL (in vitro) of 27.9%. The hemolysis at 1 h, 2000 μg/mL (in vitro) was 36.8% and the anticandidal bioactivity class (Candida spp.; reference Candida spp.) was “no anticandidal bioactivity”.

Reference: PMC10747733, “N-Substituted 2-(Benzenosulfonyl)-1-Carbotioamide Derivatives Exert Antimicrobial and Cytotoxic Effects via Aldehyde Dehydrogenase Pathway: Synthesis, In Silico and In Vitro Studies” (Pharmaceuticals, 2023)
